Reference: US20120052079A1, “Compositions, Kits, and Methods for Predicting Anti-Cancer Response to Anthracyclines” (Dana-Farber Cancer Institute, Inc., priority 2010, published 2012)

Experiments:
Assay type in all cases: cell-based, human
[1] = test system: BT549 cells; experiment: Cathepsin release and Bid, caspase 3, PARP cleavage by immunoblot; settings: for LAPTM4B knockdown-induced Bid truncation and apoptosis: BT549 pretreated with cathepsin inhibitors
Method: Cytosolic extraction was performed using the detergent digitonin which permeabilizes cholesterol-rich membranes such as plasma membrane, leaving the cholesterol-poor membranes of lysosomes and mitochondria more or less intact. Cells were exposed to an extraction buffer (250 mM sucrose, 20 mM Hepes, 10 mM KCl, 1.5 mM MgCl2, 1 mM EDTA, 1 mM EGTA, and 1 mM Pefabloc, pH 7.5) containing 25 μg/ml digitonin for 20 min on ice, inverting the tubes every 2 min. The extraction buffer was collected and proteins were precipitated by addition of 5% trichloric acid on ice for 10 min and centrifuged at ˜20,800×g for 15 min to obtain the protein pellet. The pellet was dissolved in lysis buffer.
Tumor cell line lysates or cytosols were fractionated in 7, 12 or 14% SDS-PAGE, electrophoretically transferred to a nitrocellulose membrane and probed with primary antibodies (monoclonal Anti-β-Actin antibody (Sigma), anti-Bid (BD PharMingen), anti-caspase 3, anti-H is, anti-LC3 and anti-PARP antibodies (Cell Signaling Technology), and anti-cathepsin B, anti-cathepsin D, anti-p62, HRP-conjugated secondary antibodies and FITC-conjugated secondary antibodies (Abcam). The probed proteins were visualized using the ECL Western blotting detection system from Pierce according to the manufacturer's instructions. Band densities were quantified on a AlphaImager HP imaging system (Cell Biosciences).

[2] = test system: MDA468 cells; experiment: Autophagy markers LC3 and p62 by immunoblot, LAPTM4B overexpression; settings: MDA468 with stable LAPTM4B over expression
Text: Band densities were quantified on a AlphaImager HP imaging system (Cell Biosciences).

[3] = test system: MDA-MB-231 (MDA231), HCC38 and CAMA-1; experiment: Cell growth assay, drug sensitivity after LAPTM4B/YWHAZ siRNA knockdown; settings: siRNA knockdown vs control siRNA
Method: Gene-specific and negative control oligonucleotides (Stealth™ Select RNAi, Invitrogen) were transfected using the Lipofectamine™ RNAi MAX protocol from Invitrogen. Three gene-specific oligonucleotide siRNAs were tested for each gene (LAPTM4b siRNA1: 5′-[…]-3′ and 3′-[…]-5′; LAPTM4b siRNA2: 5′-[…]-3′ and 3′-[…]-5′; LAPTM4b siRNA3: 5′-[…]-3′ and 3′-[…]-5′; LAPTM4b shRNA: Top strand, […], Bottom strand, […]; YWHAZ siRNA1: 5′-[…]-3′ and 3′-[…]-5′; YWHAZ siRNA2: 5′-[…]-3′ and 3′-[…]-5′; and YWHAZ siRNA3: 5′-[…]-3′ and 3′-[…]-5′). Transfections were performed in triplicate and the experiment was repeated four times to estimate the effect and standard deviation from the mean. Because specific antibodies were not available for the 12 genes tested, the effectiveness of siRNA knockdown by each oligonucleotide was determined by qRT-PCR assay of mRNA levels according to methods described herein.
(§1) Viable cell number was quantified using CellTiter 96® Aqueous One Solution Cell Proliferation Assay (Promega). Results are reported as optical density at 490 nm wavelength. Cells (4,000 well^−1) were seeded into 96-well plates in triplicate. siRNA transfections were performed 24 h after cell seeding. Chemotherapeutic drugs (daunorubicin, doxorubicin, paclitaxel, and cisplatin) were added 24 h after cell seeding or siRNA transfection. Cells were exposed to a series of concentrations of individual drugs for additional 48 h. Results are presented as the percentage of viable cells in drug-treated wells vs. media-treated control wells and plotted as a drug-dose dependent cell survive curve. The dose of drug causing a fifty percent reduction of viable cells (IC50) determined drug sensitivity. Drug-induced apoptosis was evaluated 48 h after drug treatment (doxorubicin at 1 μM or cisplatin at 25 μM) following siRNA transfection by detection of active caspase 3 and cleaved poly(ADP-ribose) polymerase (PARP) by Western blot analysis using caspase 3- and PARP-specific antibodies (Cell Signaling Technology), respectively.

[4] = test system: HMEC cells; experiment: Cell growth assay (CellTiter 96), drug IC50 in HMEC transfected with LAPTM4B-HA or YWHAZ-HA; settings: for effect of exogenous LAPTM4B or YWHAZ on sensitivity to drug: HMEC expressing exogenous LAPTM4B or YWHAZ
Text: The full length LAPTM4B and YWHAZ cDNAs linked to an HA tag were cloned into the pWZL (Boehm et al. (2005) Mol. Cell. Biol. 25, 6464-6474) and pBabe vectors, respectively, and packaged using the Phoenix™ Retroviral System from Orbigen. pWZL-LAPTM4B HA and pBabe-YWHAZ-HA were introduced into HMEC cells by retroviral infection and stably selected with blasticidin and puromycin, respectively.
as §1

[5] = test system: MDA-MB-231 (MDA231) and BT549 cells; experiment: Drug-induced apoptosis, Western blot for active caspase 3 and cleaved PARP; settings: doxorubicin 1 μM or cisplatin 25 μM, 48 h
Method: as §1

[6] = test system: BT549 cells; experiment: Cellular distribution of doxorubicin (autofluorescence, confocal)
Method: Twenty-four h after transfection with specific siRNA or control oligos, cells were challenged with 0.5 μM doxorubicin in complete medium for 24 h. After 24 h, the drug was removed and cells were cultured in fresh drug-free medium and examined at 36 and 48 h time points. At each time point, cells were washed twice in PBS, and fixed for 5 min in 3.0% paraformaldehyde and permeabilized in 0.1% Triton X-100 for 5 min. Following washing with PBS, cells were mounted in Prolong Gold® anti-fade reagent with DAPI (Invitrogen). Subcellular localization of doxorubicin was viewed by the Rhodamine (Cy3) channel and nuclear staining was viewed by the DAPI channel on a Zeiss HAL100 fluorescence microscope.
Forty-eight hours after transfection with specific siRNA or scramble control oligonucleotide, cells were treated with 0.1 μM doxorubicin in complete medium for 24 hours. After 24 hours of drug exposure, the drug was removed and cells were cultured in fresh drug-free medium and examined 24 hours later. Cells were washed, fixed and stained with DAPI as described in Li et al. (2010) Nat. Med., 16, 214-218. Subcellular localization of doxorubicin autofluorescence (excited wave: 480 nm; emitted wave: 560-620 nm) and lysosomes indicated by LysoTracker DND-26 (excited wave: 504 nm; emitted wave: 509-540 nm) was examined on a Leica SP5X Laser Scanning Confocal Microscope with a white light laser.

[7] = test system: MDA-MB-231 cells; experiment: Cellular distribution of doxorubicin (autofluorescence); settings: 0.5 μM doxorubicin; detectable within 12 h to 24 h, sustained at 48 h
[8] = BT549 pretreated with pan-caspase inhibitor

In the case of `CCOC(=O)[C@H]1O[C@@H]1C(=O)N[C@@H](CC(C)C)C(=O)NCCC(C)C` (relative stereo) [EST, trans-epoxysuccinyl-L-leucylamindo-3-methylbutane ethyl ester], the “LAPTM4B knockdown-induced Bid truncation and apoptosis” value [1] is reported as “protected”.

With `CCN(CC)CCCC(C)Nc1ccnc2cc(Cl)ccc12` (stereo not drawn) [chloroquine] the “starvation-induced autophagy (higher LC3II, lower p62) by LAPTM4B over expression” value [2] was “blocked”.

With `N.N.[Cl][Pt][Cl]` [cisplatin] the “sensitivity to drug after specific knockdown of LAPTM4B and YWHAZ” value (“sensitivity to drug … of LAPTM4B and YWHAZ” for short) [3] was “weaker or no effect”, the “effect of exogenous LAPTM4B or YWHAZ on sensitivity to drug” value [4] was “no significant effect” and the “drug-induced apoptosis after knockdown of LAPTM4B or YWHAZ” value [5] was “less apparent”.

With `COc1cccc2c1C(=O)c1c(O)c3c(c(O)c1C2=O)C[C@@](O)(C(C)=O)C[C@@H]3O[C@H]1C[C@H](N)[C@H](O)[C@H](C)O1` [daunorubicin] the “sensitivity to drug … of LAPTM4B and YWHAZ” value [3] was “increased sensitivity”.

`COc1cccc2c1C(=O)c1c(O)c3c(c(O)c1C2=O)C[C@@](O)(C(=O)CO)C[C@@H]3O[C@H]1C[C@H](N)[C@H](O)[C@H](C)O1` [doxorubicin] was tested, and the “doxorubicin distribution after down-regulation of LAPTM4B” value ([6]; BT549, LAPTM4B-specific siRNA, 48 hours exposure) was “release of doxorubicin from lysosomes”, the “intracellular distribution of doxorubicin autofluorescence” value ([6]; BT549 overexpressing LAPTM4B, Lysotracker green DND-26) was “co-localizes with the lysosome marker” and the “sensitivity to drug … of LAPTM4B and YWHAZ” value [3] was “increased sensitivity”. For the same compound, the “nuclear localization of doxorubicin after LAPTM4B siRNA knockdown” value [7] was “substantial increase in nuclear localization”, the “increase in IC50 of doxorubicin” value ([4]; HMEC expressing exogenous LAPTM4B vs control vector, P<0.002) was 270% and the “increase in IC50 of doxorubicin” value ([4]; HMEC expressing exogenous YWHAZ vs control vector, P=0.0001) was 394%. For the same compound, the “drug-induced apoptosis after knockdown of LAPTM4B or YWHAZ” value [5] was “considerably increased”.

For `CC(=O)O[C@H]1C(=O)[C@@]2(C)[C@H]([C@H](OC(=O)c3ccccc3)[C@]3(O)C[C@H](OC(=O)[C@H](O)[C@@H](NC(=O)c4ccccc4)c4ccccc4)C(C)=C1C3(C)C)[C@]1(OC(C)=O)CO[C@@H]1C[C@@H]2O` [paclitaxel], the “sensitivity to drug … of LAPTM4B and YWHAZ” value [3] was “weaker or no effect” and the “effect of exogenous LAPTM4B or YWHAZ on sensitivity to drug” value [4] was “no significant effect”.

For pepstatin A, the “LAPTM4B knockdown-induced Bid truncation and apoptosis” value [1] was “protected”.

With “z-Val-Ala-Asp-fluoromethylketone [z-VAD-FMK]” the “Bid truncation after LAPTM4B knockdown” value [1, 8] was “did not prevent Bid truncation” and the “caspase 3 activation after LAPTM4B knockdown” value [1, 8] was “sufficient to abrogate caspase 3 activation”.
